Results as given in patent US20250223559A1, “AXIOLOID: A STEM CELL-BASED MODEL OF HUMAN AXIAL DEVELOPMENT” (KYOTO UNIVERSITY, priority 2022, published 2025).

Test system: human Axioloids
Experiment: Axioloid morphogenesis during Matrigel embedding phase (brightfield live imaging, length, segment and somite quantification)
Type: cell-based
Settings: added during MG embedding phase 72 h-120 h (RA 100 nM, ROL 10 μM, RAL 1 μM); 96 h and 120 h
Method: Human iPS cells were seeded on iMatrix-511 silk (Nippi) coated dishes at a density of 1.3×10^4 cells/well into 6 well plates 5 days prior to Axioloid induction and used at 60% confluency. All subsequent induction steps were performed in AK02N (Reprocell) medium without component C (AK02N-C). Initially, hiPSCs were pulsed with a strong mesoderm and primitive streak fate inducing combination of bFGF (20 ng ml-1) and WNT agonist CHIR99021 (5 μM) for 24 h. CHIR99021 concentration may need to be adjusted depending on the used iPSC line, but remains usually in the range of 3-5 μM. 24 h after the initial pulse, cells were dissociated with Accutase (Thermo Fisher Scientific) and cultured for 24 h in 96-well U-bottom low attachment plates (Sumilon) at 500 cells/well in 50 μl of AK02N—C based aggregation medium supplemented with CHIR99021 (5 μM), basic FGF (20 ng ml^1), TGFβ inhibitor SB431542 (10 μM) and ROCK inhibitor Y27632 (10 μM). 24 h after aggregation, 150 μl of AK02N-C medium was added into each well and exchanged again after 24 h with 150 μl of fresh AK02N-C medium. 48 h after aggregation Axioloids were transferred one-by-one into BSA-treated 96-well flat-bottom low attachment plates (Watson) and embedded into 80 μl of AK02N-C medium containing 10% growth factor-reduced Matrigel (Corning) and cultured further at 37° C. and 5% CO2 for 24 to 48 h. Depending on the experimental setup Retinoic Acid signaling molecules, i.e. Retinoic Acid (RA) (100 nM), Retinol (ROL) (10 μM) or all trans-Retinal (RAL) (1 μM) were added to the MG containing medium throughout the embedding phase. Small molecule inhibitors of FGF (PD173074 (250 nM)), WNT (XAV939 (2 μM)), RA (BMS493 (2.5 μM)) and Notch (DAPT (25 μM)) signaling were also added during the embedding phase and their effects on Axioloids assessed accordingly. For details of the used recombinant human proteins, small molecule agonists and inhibitors, please see Supplementary Table 1. […]
Periodicity of segmentation was quantified from brightfield live-cell imaging data obtained with an inverted Ti2 microscope system (Nikon) using PlanApo λ 10× objective. […]
Quantification of length or intensity based on imaging data was performed using Fiji^57. Rostrocaudal length of formed segments was quantified from a center plane in z-stack images of Phalloidin-stained Axioloids. The longitudinal axes of Axioloids were measured on bright field images using Segmented Line tool. For quantifying fluorescent intensity of HCR or IHC staining, first, maximum intensity z projection images were created from multi-channel z-stack confocal images, then intensity of each channel was quantified along the longitudinal axis of Axioloids by Segmented Line tool, with a line width which corresponds to approximately 80% of the lateral length of Axioloids. […]

CC1=C(/C=C/C(C)=C/C=C/C(C)=C/C=O)C(C)(C)CCC1 [RAL, all trans-Retinal]
stability and epithelialization of forming segments: dramatic improvement of the stability and epithelialization of forming segments
